Data: US20050101611A1, “Oral formulation comprising an inhibitor compound of the ileal bile transport and an hmg co-a reductase inhibitor” (priority 2000, published 2005)

Target: T1, ileal bile acid transport system (IBAT) (Homo sapiens, UniProt Q12908)
T1 sequence (Q12908 1-348): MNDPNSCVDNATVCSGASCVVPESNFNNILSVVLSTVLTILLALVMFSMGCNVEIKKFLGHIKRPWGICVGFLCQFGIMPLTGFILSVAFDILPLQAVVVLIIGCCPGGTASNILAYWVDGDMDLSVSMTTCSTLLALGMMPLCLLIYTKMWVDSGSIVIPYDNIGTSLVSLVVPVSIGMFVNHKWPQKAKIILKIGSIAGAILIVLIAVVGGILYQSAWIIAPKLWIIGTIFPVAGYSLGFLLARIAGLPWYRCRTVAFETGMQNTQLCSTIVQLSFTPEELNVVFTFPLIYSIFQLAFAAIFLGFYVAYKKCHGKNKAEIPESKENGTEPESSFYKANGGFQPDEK
Experiment: inhibition of IBAT
Conditions: statement in background text; no method or data given

## COc1ccc([C@@H]2Sc3ccccc3N(CCN(C)C)C(=O)[C@@H]2OC(C)=O)cc1 [diltiazem]
  inhibition of IBAT: no activity
